# Reference: ChEMBL document CHEMBL5727613, “Benzimidazolone and benzothiazolone compounds and their use as AMPA receptor modulators” (2020)
# pIC50: −log10 of the molar value.
# Test: Calcium Flux Assay: This assay was used to test compounds for their ability to inhibit TARP γ8 dependent AMPA receptor activity. The AMPA receptor is a non-selective cation channel activated by glutamate. lonotropic glutamate receptors normally desensitize too rapidly to allow detectable calcium influx in a FLIPR assay (Strange et al. (2006). “Functional characterisation of homomeric ionotropic glutamate receptors GluR1-GluR6 in a fluorescence-based high throughput screening assay.” Comb Chem High Throughput Screen 9(2): 147-158). But, this desensitization is incomplete, and a substantial steady-state current remains in the sustained presence of glutamate (Cho et al. (2007). “Two families of TARP isoforms that have distinct effects on the kinetic properties of AMPA receptors and synaptic currents.” Neuron 55(6): 890-904).An in vitro assay was used to determine the potency of test compounds as inhibitors of the glutamate response of the channel formed by GluA1o-g8. To ensure a 1:1 stoichiometry of GluA1o and g8 subunits in the expressed channel, a fusion of the cDNAs for GRIA1o and CACNG8 was used. Channels expressed with this construct appear to have similar properties to channels formed by co-expression of GRIA1o with an excess of CACNG8 (Shi et al. 2009). A clonal cell line in HEK293 cells stably expressing this construct, with a geneticin selection marker, was generated for use in this assay. Cell expressing the GRIAlo-CACNG8 fusion construct were grown in a monolayer in 96- or 384-well microtiter plates. They were washed with assay buffer (135 mM NaCl, 4 mM KCl, 3 mM CaCl2), 1 mM MgCl2, 5 mM glucose, 10 mM HEPES, pH 7.4, 300 mOs) using a Biotek EL405 plate washer. The cells were then loaded with a calcium-sensitive dye (Calcium-5 or Calcium-6, Molecular Devices) and the test compounds at a range of concentrations. Calcium flux following the addition of 15 μM glutamate was monitored using a Molecular Devices FLIPR Tetra.The fluorescence in each well was normalized to the fluorescence of negative and positive control wells. […]
row,SMILES,pIC50
1,Cc1cccc(C)c1-c1ccc2[nH]c(=O)[nH]c2c1,6.80
2,O=c1[nH]c2ccc(-c3c(Cl)cccc3OC(F)(F)F)cc2s1,8.60
3,O=c1[nH]c2ccc(-c3c(Cl)cccc3C3CC3)cc2[nH]1,8.20
